Here are results for six compounds from paper PMC9177618 (Structure (London, England : 1993), 2022).

Data set [1] has as its system Dnmt1. To be noted: murine pre-implantation Dnmt3a/3b knockout embryos; ref Haggerty et al., 2021; cited from earlier work.
Data set [2] deals with mouse embryonic stem cells. To be noted: ref Portilho et al., 2021; cited from earlier work.
Data set [3] addresses full-length DNMT1 (Homo sapiens, UniProt P26358). Put plainly: radioactive scintillation proximity assay. Type of data set: biochemical. (In a scintillation proximity assay essentially only radioactivity close to the scintillant gives light.)
The test system of data set [4] is more than 300 protein kinases and 30 other methyltransferases (MTases), including DNMT3a and 3b. To be noted: ref Pappalardi et al., 2021; cited from earlier work.
The test system of data set [5] is cancer cell. Particulars: in vitro; ref Pappalardi et al., 2021; cited from earlier work.
The test system of data set [6] is acute myeloid leukemia. To be noted: mouse models of acute myeloid leukemia; ref Pappalardi et al., 2021; cited from earlier work.

Where a name gives a salt, the structure may show the parent alone.

Sequence of full-length DNMT1 (P26358 whole entry): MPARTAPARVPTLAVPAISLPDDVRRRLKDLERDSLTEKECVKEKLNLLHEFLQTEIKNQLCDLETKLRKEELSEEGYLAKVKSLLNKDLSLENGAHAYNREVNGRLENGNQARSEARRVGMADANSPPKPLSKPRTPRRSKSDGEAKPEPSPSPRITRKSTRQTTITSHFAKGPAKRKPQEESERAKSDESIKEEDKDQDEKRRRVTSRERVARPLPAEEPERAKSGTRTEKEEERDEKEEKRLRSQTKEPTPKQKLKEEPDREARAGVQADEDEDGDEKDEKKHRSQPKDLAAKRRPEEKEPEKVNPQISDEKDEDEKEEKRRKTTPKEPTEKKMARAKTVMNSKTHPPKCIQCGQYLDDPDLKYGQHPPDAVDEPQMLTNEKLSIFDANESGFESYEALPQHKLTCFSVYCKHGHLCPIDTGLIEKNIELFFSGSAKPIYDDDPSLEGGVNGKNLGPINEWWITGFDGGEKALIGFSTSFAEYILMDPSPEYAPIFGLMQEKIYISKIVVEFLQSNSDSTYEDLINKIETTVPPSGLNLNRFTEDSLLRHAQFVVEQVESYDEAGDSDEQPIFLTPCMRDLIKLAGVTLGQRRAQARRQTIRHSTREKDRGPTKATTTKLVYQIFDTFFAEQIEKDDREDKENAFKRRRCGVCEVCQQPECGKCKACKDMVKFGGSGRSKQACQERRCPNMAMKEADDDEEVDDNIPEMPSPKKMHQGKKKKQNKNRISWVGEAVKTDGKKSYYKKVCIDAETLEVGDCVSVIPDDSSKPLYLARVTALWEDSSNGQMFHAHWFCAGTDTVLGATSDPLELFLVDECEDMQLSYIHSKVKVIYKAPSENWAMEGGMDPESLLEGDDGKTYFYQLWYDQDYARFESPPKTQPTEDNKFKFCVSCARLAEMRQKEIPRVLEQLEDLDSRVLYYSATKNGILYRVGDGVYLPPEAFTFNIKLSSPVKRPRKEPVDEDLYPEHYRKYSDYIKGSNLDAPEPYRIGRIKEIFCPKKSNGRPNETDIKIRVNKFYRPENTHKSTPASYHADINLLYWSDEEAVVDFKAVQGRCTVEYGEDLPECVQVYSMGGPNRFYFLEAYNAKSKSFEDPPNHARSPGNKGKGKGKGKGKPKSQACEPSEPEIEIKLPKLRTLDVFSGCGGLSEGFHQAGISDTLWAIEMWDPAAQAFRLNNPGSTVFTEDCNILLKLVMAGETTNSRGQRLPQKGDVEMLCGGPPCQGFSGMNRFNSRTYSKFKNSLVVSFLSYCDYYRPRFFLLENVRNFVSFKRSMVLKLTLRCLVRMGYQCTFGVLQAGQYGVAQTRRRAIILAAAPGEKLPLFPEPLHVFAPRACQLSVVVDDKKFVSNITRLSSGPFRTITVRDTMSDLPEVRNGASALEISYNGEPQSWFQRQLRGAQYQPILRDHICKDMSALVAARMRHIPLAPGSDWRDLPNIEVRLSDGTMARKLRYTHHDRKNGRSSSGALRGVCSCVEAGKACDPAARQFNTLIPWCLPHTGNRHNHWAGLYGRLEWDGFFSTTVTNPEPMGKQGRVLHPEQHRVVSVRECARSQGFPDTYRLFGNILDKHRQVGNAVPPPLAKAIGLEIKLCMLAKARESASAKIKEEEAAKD

For `CCc1c(C#N)c(SC(C(N)=O)c2ccccc2)nc(N(C)C)c1C#N` (stereo not shown) [GSK3484862], the “inhibition of Dnmt1” value in data set [1] was “inhibits Dnmt1”. In data set [2], the demethylation result was “demethylation in mouse embryonic stem cells, in a level similar to that observed with Dnmt1 knockouts” and the non-specific toxicity result was “minimal non-specific toxicity”.
Usually IC50 stands for the concentration that gives 50% inhibition. Take `CCc1c(C#N)c(SC(C(N)=O)c2ccccc2)nc(N2CCCN(CCO)CC2)c1C#N` (stereo not shown) [GSK3543105, 2-((3,5-dicyano-4-ethyl-6-(4-(2-hydroxyethyl)-1,4-diazepan-1-yl)pyridin-2-yl)thio)-2-phenylacetamide]: the IC50 in data set [3] lay in the range of 30 to 60 nM.
Turning to `CCc1c(C#N)c(SC(C(N)=O)c2ccccc2)nc(N2CCC(N)CC2)c1C#N` (stereo not shown) [GSK3685032], the “selectivity for DNMT1” value in data set [4] is “selective for DNMT1 over more than 300 protein kinases and 30 other methyltransferases”. Besides, the “inhibition of cancer cell growth” value in data set [5] was “inhibits cancer cell growth”. Moreover, the “tumor regression and survival compared with decitabine (Dacogen)” value in data set [6] is recorded as “superior to decitabine”.
With `CCc1c(C#N)c(SCc2ccc(CNC(=O)CN)cc2)nc(N2CCCN(C)CC2)c1C#N` [GSK3735967, 2-amino-N-(4-(((3,5-dicyano-4-ethyl-6-(4-methyl-1,4-diazepan-1-yl)pyridin-2-yl)thio)methyl)benzyl)acetamide], the IC50 in data set [3] was 30 to 60 nM.
Turning to `CCc1c(C#N)c(N[C@@H](C(N)=O)c2ccccc2)nc(N2CCC(N)CC2)c1C#N` [GSK3830334, (R)-2-((6-(4-aminopiperidin-1-yl)-3,5-dicyano-4-ethylpyridin-2-yl)amino)-2-phenylacetamide], the “reduced potency relative to the ~30-60 nM compounds” value in data set [3] (full-length DNMT1, 40-mer hemimethylated DNA duplex, radioactive SPA) is listed as 3-6 fold.
On to `CCc1c(C#N)c(SC(C(N)=O)c2ccc(C(F)(F)F)cc2)nc(N2CCC(N)CC2)c1C#N` (stereo not shown) [GSK3852279, 2-((6-(4-aminopiperidin-1-yl)-3,5-dicyano-4-ethylpyridin-2-yl)thio)-2-(4-(trifluoromethyl)phenyl)acetamide trifluoroacetate], for which the IC50 in data set [3] fell in the range of 30 to 60 nM.
